In patent publication US20260042769A1, “TRIARYL AGONISTS OF ALPHA-2 ADRENERGIC RECEPTORS” (ALCEPTOR THERAPEUTICS, INC., priority 2023, published 2026) one finds EC50 data, which are given here for 39 compounds.

This test addresses T1, human ADRA2B receptor (Homo sapiens, UniProt P18089).
T1 construct: expressed in transfected cells
T1 sequence (P18089 1-450): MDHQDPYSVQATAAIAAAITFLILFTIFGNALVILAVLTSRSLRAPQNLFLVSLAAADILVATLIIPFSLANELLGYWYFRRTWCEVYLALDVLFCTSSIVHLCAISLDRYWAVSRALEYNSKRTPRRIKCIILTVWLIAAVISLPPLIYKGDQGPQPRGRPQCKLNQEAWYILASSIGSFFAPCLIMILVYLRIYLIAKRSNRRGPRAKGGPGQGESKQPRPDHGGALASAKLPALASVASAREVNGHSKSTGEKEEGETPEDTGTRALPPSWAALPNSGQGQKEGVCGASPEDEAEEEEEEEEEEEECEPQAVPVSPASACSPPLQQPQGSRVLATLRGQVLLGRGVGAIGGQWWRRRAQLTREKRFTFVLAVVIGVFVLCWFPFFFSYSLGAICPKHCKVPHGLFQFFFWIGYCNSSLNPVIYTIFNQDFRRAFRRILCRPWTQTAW
In words: ADRA2B arrestin agonist assay. Type of test: cell-based. The settings on record: read-out: Beta-Arrestin - Human Alpha2B EC50. As for the experimental part:
ADRA2A and ADRA2B Arrestin Agonist Assay Method
The arrestin assay uses frozen CHO-K1 cell lines stably expressing human ADRA2A and ADRA2B receptors. Cells are frozen following normal cell freezing protocols. Briefly, cells are washed with PBS and then dissociated with 0.25% trypsin. Dissociated cells are quenched in full media and then collected by centrifugation at 290×g for 5 minutes. […] Cells are stored at −80° C. (or in liquid N2 if stored >6 months) until the day of the assay.
On the day before the assay, frozen cells are thawed in a 37° C. water bath, brought up in 20 mL of full media, and collected via centrifugation at 290×g for 5 minutes. […] Cells are incubated overnight in a 37° C., 5% CO2 cell incubator.
On the day of the assay, agonists are diluted in Opti-MEM to 3.5x of the final assay concentration. 4 μL of agonists are added to the cells and incubated for 2 hours at 37° C. in a 5% CO2 cell incubator. 6 μL of arrestin detection reagents are dispensed onto the cells and the plates are incubated for 2 hours at room temperature. […] Plates are read on an Envision luminescence plate reader.

The mark [1] stands for this setting: CHO-K1 cells stably expressing human ADRA2B.

Read-outs that look alike come from different tables or passages of the source. Some results are limits rather than exact numbers.

For the compound `Fc1c(Cl)cccc1C(Cc1cc[nH]n1)c1c[nH]cn1` (stereo not drawn) [Compound 251, 3-[2-(3-chloro-2-fluorophenyl)-2-(4-imidazolyl)ethyl]py-razole], under setting [1], the EC50 (as a rule, the concentration that produces a half-maximal response) lay within 50 to 500 nM.

As to `CCOc1c(F)cccc1C(Cc1ccnc(OC)n1)c1c[nH]cn1` (stereo not drawn) [Compound 197, 4-[2-(2-ethoxy-3-fluorophenyl)-2-(4-imidazolyl)ethyl]-2-methoxypyrimidine], the EC50 under setting [1] lay within 50 to 500 nM.

Regarding `Cc1cccc([C@@H](Cc2cccc(C(C)(C)O)n2)c2c[nH]cn2)c1C` [Compound 304, 2-{6-[(R)-2-(4-imidazolyl) 2-(2,3-xylyl)ethyl]-2-pyridyl}-2-propanol], under setting [1], the EC50 was less than 10 nM.

Take `Cc1cccc(C(Cc2ccns2)c2c[nH]cn2)c1C` (stereo not drawn) [Compound 244, 5-[2-(4-imidazolyl)-2-(2,3-xylyl)ethyl]isothiazole]: the EC50 under setting [1] was less than 10 nM.

In the case of `Cc1cccc(C(Cc2c(C)ccnc2C)c2c[nH]cn2)c1C` (stereo not drawn) [Compound 386, 4-[2-(2,4-dimethyl-3-pyridyl)-1-(2,3-xylyl)ethyl]imidazole], the EC50 under setting [1] was more than 500 nM.

For `Cc1cccc(C(Cc2ccc(F)nc2)c2c[nH]cn2)c1F` (stereo not drawn) [Compound 323, 4-[2-(6-fluoro-3-pyridyl)-1-(2-fluoro-3-tolyl)ethyl]imidazole], under setting [1], the EC50 fell in the range of 50 to 500 nM.

For the compound `Cc1cccc(C(Cc2ncnc3[nH]ccc23)c2c[nH]cn2)c1C` (stereo not drawn) [Compound 286, 4-[2-(4-imidazolyl)-2-(2,3-xylyl)ethyl]-1H-1,5,7-triazaindene], the EC50 under setting [1] is less than 10 nM.

In the case of `Cc1cccc(C(Cc2cncnc2C)c2c[nH]cn2)c1C` (stereo not drawn) [Compound 256, 5-[2-(4-imidazolyl)-2-(2,3-xylyl)ethyl]-4-methylpyrimidine], under setting [1], the EC50 was 50 to 500 nM.

For the compound `Cc1nccc(CC(c2c[nH]cn2)c2cccc3c2OCCO3)n1` (stereo not drawn) [Compound 343, 4-[2-(2,3-dihydro-1,4-benzodioxin-5-yl)-2-(4-imidazolyl)ethyl]-2-methylpyrimidine], the EC50 under setting [1] was less than 10 nM.

Take `Cc1cccc([C@H](Cc2cccc(CF)n2)c2c[nH]cn2)c1C` [Compound 151, 4-{(S)-2-[6-(fluoromethyl)-2-pyridyl]-1-(2,3-xylyl)ethyl}imidazole]: under setting [1], the EC50 fell in the range of 50 to 500 nM.

Take `COc1cc(CC(c2c[nH]cn2)c2cccc3c2OCC3)ccn1` (stereo not drawn) [Compound 314, 4-[1-(2,3-dihydro-1-benzofuran-7-yl)-2-(2-methoxy-4-pyridyl)ethyl]imidazole]: the EC50 under setting [1] is less than 10 nM.

Regarding `Fc1c(Cl)cccc1C(Cc1cnco1)c1c[nH]cn1` (stereo not drawn) [Compound 392, 5-[2-(3-chloro-2-fluorophenyl)-2-(4-imidazolyl)ethyl]-1,3-oxazole], the EC50 under setting [1] fell in the range of 10 to 50 nM.

Regarding `Cc1cccc([C@H](Cc2cn(C)nn2)c2c[nH]cn2)c1C` [Compound 240, 4-[(S)-2-(4-imidazolyl)-2-(2,3-xylyl)ethyl]-1-methyl-1H-1,2,3-triazole], under setting [1], the EC50 is less than 10 nM.

Turning to `COc1nccc(C[C@H](c2c[nH]cn2)c2cccc(F)c2OC)n1` [Compound 183, 4-[(S)-2-(3-fluoro-2-methoxyphenyl)-2-(4-imidazolyl)ethyl]-2-methoxypyrimidine], the EC50 under setting [1] was more than 500 nM.

As for `COc1nccc(C[C@H](c2c[nH]cn2)c2cccc3ccn(C)c23)n1` [Compound 349, 4-[(S)-2-(4-imidazolyl)-2-(1-methyl-7-indolyl)ethyl]-2-methoxypyrimidine], the EC50 under setting [1] is more than 500 nM.

Take `Cc1cccc(C(Cc2cnc3n[nH]cc3c2)c2c[nH]cn2)c1C` (stereo not drawn) [Compound 287, 5-[2-(4-imidazolyl)-2-(2,3-xylyl)ethyl]-2H-1,2,7-triazaindene-formic acid (1/1)]: under setting [1], the EC50 is less than 10 nM.

With `Cc1nccc(CC(c2c[nH]cn2)c2cccc(C)c2Cl)n1` (stereo not drawn) [Compound 157, 4-[2-(2-chloro-3-tolyl)-2-(4-imidazolyl)ethyl]-2-methylpyrimidine], under setting [1], the EC50 was less than 10 nM.

For the compound `Cc1cc(CC(c2c[nH]cn2)c2cccc(Cl)c2F)ncn1` (stereo not drawn) [Compound 163, 4-[2-(3-chloro-2-fluorophenyl)-2-(4-imidazolyl)ethyl]-6-methylpyrimidine], under setting [1], the concentration giving a half-maximal response (EC50) was in the range of 50 to 500 nM.

Take `Cc1cccc([C@@H](Cc2ccn(C(F)F)n2)c2c[nH]cn2)c1C` [Compound 282, 3-[(R)-2-(4-imidazolyl)-2-(2,3-xylyl)ethyl]-1-(difluoromethyl)pyrazole]: the 50% effective concentration (EC50) under setting [1] was more than 500 nM.

Consider `Cc1cccc([C@H](Cc2ccnc(C(C)(C)O)n2)c2c[nH]cn2)c1C` [Compound 211, 2-{4-[(S)-2-(4-imidazolyl)-2-(2,3-xylyl)ethyl]-2-pyrimidinyl}-2-propanol], for which, under setting [1], the 50% effective concentration (EC50) was more than 500 nM.

For the compound `Cc1cccc(C(Cc2ccnc(C3COC3)n2)c2c[nH]cn2)c1C` (stereo not drawn) [Compound 210, 4-[2-(4-imidazolyl)-2-(2,3-xylyl)ethyl]-2-(3-oxetanyl)pyrimidine], under setting [1], the EC50 is less than 10 nM.

Turning to `Cc1cccc([C@H](Cc2cn[nH]c2)c2c[nH]cn2)c1C` [Compound 233, 4-[(S)-2-(4-imidazolyl)-2-(2,3-xylyl)ethyl]pyrazole], the EC50 was less than 10 nM.

For `COc1c(C)cccc1[C@@H](Cc1ccnn1C)c1c[nH]cn1` [Compound 381, 5-[(R)-2-(4-imidazolyl)-2-(2-methoxy-3-tolyl)ethyl]-1-methylpyrazole], the EC50 under setting [1] is more than 500 nM.

With `COc1c(C)cccc1[C@H](Cc1ccnn1C)c1c[nH]cn1` [Compound 382, 5-[(S)-2-(4-imidazolyl)-2-(2-methoxy-3-tolyl)ethyl]-1-methylpyrazole], the EC50 under setting [1] fell in the range of 10 to 50 nM.

As to `Cc1cccc(C(Cc2cnc3[nH]ccc3c2)c2c[nH]cn2)c1C` (stereo not drawn) [Compound 283, 4-[2-(1H-1,7-diazainden-5-yl)-1-(2,3-xylyl)ethyl]imidazole], under setting [1], the EC50 is less than 10 nM.

With `Cc1cccc(C(Cc2ccc(F)c(CO)n2)c2c[nH]cn2)c1C` (stereo not drawn) [Compound 318, {3-fluoro-6-[2-(4-imidazolyl)-2-(2,3-xylyl)ethyl]-2-pyridyl}methanol], under setting [1], the EC50 was less than 10 nM.

Turning to `COc1c(C)cccc1C(Cc1cnco1)c1c[nH]cn1` (stereo not drawn) [Compound 375, 5-[2-(4-imidazolyl)-2-(2-methoxy-3-tolyl)ethyl]-1,3-oxazole], under setting [1], the EC50 fell in the range of 50 to 500 nM.

For `COc1c(C)cccc1C(Cc1ccnc(CO)n1)c1c[nH]cn1` (stereo not drawn) [Compound 347, {4-[2-(4-imidazolyl)-2-(2-methoxy-3-tolyl)ethyl]-2-pyrimidinyl}methanol], the EC50 under setting [1] was in the range of 50 to 500 nM.

`Cn1ncc2c(C(Cc3cccc(CO)n3)c3c[nH]cn3)cccc21` (stereo not drawn) [Compound 301, {6-[2-(4-imidazolyl)-2-(1-methyl-1H-indazol-4-yl)ethyl]-2-pyridyl}methanol]: under setting [1], the concentration for a half-maximal effect (EC50) was 10 to 50 nM.

As for `Cc1cccc([C@@H](Cc2cn[nH]c2)c2c[nH]cn2)c1C` [Compound 232, 4-[(R)-2-(4-imidazolyl)-2-(2,3-xylyl)ethyl]pyrazole], under setting [1], the EC50 was more than 500 nM.

`Cc1cccc(C(Cc2ccc(C(N)=O)nc2)c2c[nH]cn2)c1C` (stereo not drawn) [Compound 288, 5-[2-(4-imidazolyl)-2-(2,3-xylyl)ethyl]-2-pyridinecarboxamide]: the EC50 under setting [1] is less than 10 nM.

As to `Cc1cccc(C(Cc2ccn3ccnc3c2)c2c[nH]cn2)c1C` (stereo not drawn) [Compound 403, 4-[2-(1,3a-diaza-6-indenyl)-1-(2,3-xylyl)ethyl]imidazole], the EC50 under setting [1] was 10 to 50 nM.

On to `c1ccc(C[C@@H](c2c[nH]cn2)c2cccc3c2OCC3)nc1` [Compound 252, 4-[(R)-1-(2,3-dihydro-1-benzofuran-7-yl)-2-(2-pyridyl)ethyl]imida-], for which the EC50 under setting [1] was in the range of 10 to 50 nM.

`Cc1cccc(C(Cc2ccnc(C3CCO3)n2)c2c[nH]cn2)c1C` (stereo not drawn) [Compound 405, 4-[2-(2,3-dimethylphenyl)-2-(1H-imidazol-4-yl)ethyl]-2-(oxetan-2-yl)pyrimidine]: the EC50 under setting [1] was less than 10 nM.

Consider `Cc1cccc([C@@H](Cc2cc[nH]n2)c2c[nH]cn2)c1C` [Compound 234, 3-[(R)-2-(4-imidazolyl)-2-(2,3-xylyl)ethyl]pyrazole], for which the EC50 under setting [1] is more than 500 nM.

For `Cn1nccc1CC(c1c[nH]cn1)c1cccc2c1cnn2C` (stereo not drawn) [Compound 269, 4-[1-(4-imidazolyl)-2-(1-methyl-5-pyrazolyl)ethyl]-1-methyl-1H-indazole], the EC50 under setting [1] lay within 50 to 500 nM.

Take `Cc1nnc(CC(c2c[nH]cn2)c2cccc(C)c2C)s1` (stereo not drawn) [Compound 263, 2-[2-(4-imidazolyl)-2-(2,3-xylyl)ethyl]-5-methyl-1,3,4-thiadiazole]: the half-maximal effective concentration (EC50) under setting [1] was 50 to 500 nM.

In the case of `Cc1cccc([C@H](Cc2cocn2)c2c[nH]cn2)c1C` [Compound 366, 4-[(S)-2-(4-imidazolyl)-2-(2,3-xylyl)ethyl]-1,3-oxazole], the concentration for a half-maximal effect (EC50) under setting [1] was less than 10 nM.

Regarding `Cc1cccc(C(Cc2cocn2)c2c[nH]cn2)c1Cl` (stereo not drawn) [Compound 376, 4-[2-(2-chloro-3-tolyl)-2-(4-imidazolyl)ethyl]-1,3-oxazole], the EC50 under setting [1] lay in the range of 10 to 50 nM.
